Source: ChEMBL document CHEMBL5131466, “Discovery and development of labdane-oxindole hybrids as small-molecule inhibitors against chikungunya virus infection” (Eur J Med Chem, 2022)

Assays:
[1] = Selectivity index, ratio of CC50 for cytotoxicity against human HeLa CCL2 cells to EC50 for antiviral activity against CHIKV 122508 infected in human HeLa CCL2 cells; type: toxicity, cell-based; conditions: read-out: Ratio CC50/EC50
[2] = system: Chikungunya virus; experiment: Antiviral activity against CHIKV 122508 infected in […] BHK-21 cells assessed as reduction in viral titer at MOI of 1 measured after 24 hpi by viral plaque assay; type: functional, organism-based; conditions: Chikungunya virus, 122508, BHK-21
[3] = Cytotoxicity against human HeLa CCL2 cells assessed as reduction in cell viability measured after 24 hrs by Alamar blue assay; type: functional
[4] = system: Chikungunya virus; experiment: Antiviral activity against CHIKV 122508 infected in human HeLa CCL2 cells assessed as inhibition of viral replication at MOI of 1 at 100 uM incubated for 24 hpi by viral plaque assay; type: functional; set-up: unit not given here; conditions: time 24 hrs
[5] = system: Chikungunya virus; experiment: Antiviral activity against CHIKV 122508 infected in human HeLa CCL2 cells assessed as inhibition of viral replication at MOI of 1 at 10 uM incubated for 24 hpi by viral plaque assay; type: functional; set-up: unit not given here; conditions: time 24 hrs

For `C=C1CC[C@@H]2[C@](C)(COC(C)=O)[C@H](OC(C)=O)CC[C@@]2(C)[C@@H]1C/C=C1/C(=O)Nc2ccccc21`, the selectivity ratio [1] was over 14, the EC50 [2] was 7.4 µM and the CC50 [3] was over 100 µM.

In the case of `C=C1CC[C@H]2C(C)(C)CCC[C@]2(C)[C@H]1C/C=C1/C(=O)Nc2c1cccc2C(F)(F)F`, the selectivity ratio [1] is reported as over 61, the EC50 [2] is reported as 1.64 µM and the CC50 [3] is reported as over 100 µM.

`C=C1CC[C@@H]2[C@](C)(CO)[C@H](O)CC[C@@]2(C)[C@@H]1C/C=C1\SC(=S)NC1=O` showed a CC50 [3] of over 100 µM.

With `C=C1CC[C@H]2C(C)(C)CCC[C@]2(C)[C@H]1C/C=C1\C(=O)Nc2c1cccc2C(F)(F)F` the selectivity ratio [1] was over 11, the EC50 [2] was 8.77 µM and the CC50 [3] was over 100 µM.

With `C=C1CC[C@H]2C(C)(C)CCC[C@]2(C)[C@H]1C/C=C1\C(=O)Nc2cc(C)ccc21` the selectivity ratio [1] was 3.2, the EC50 [2] was 11.6 µM and the CC50 [3] was 37.2 µM.

With `C=C1CC[C@H]2C(C)(C)CCC[C@]2(C)[C@H]1C/C=C1\C(=O)Nc2cccc(C)c21` the selectivity ratio [1] was 69, the EC50 [2] was 0.72 µM and the CC50 [3] was 49.9 µM.

`C=C1[C@H](O)C[C@H]2C(C)(C)CCC[C@]2(C)[C@H]1C/C=C1\C(=O)Nc2ccccc21` showed a selectivity ratio [1] of 14, an EC50 [2] of 1.41 µM and a CC50 [3] of 20 µM.

For `C=C1CC[C@H]2C(C)(C)CCC[C@]2(C)[C@H]1C/C=C1\C(=O)Nc2ccc(Cl)cc21`, the selectivity ratio [1] was 4.5, the EC50 [2] was 4.1 µM and the CC50 [3] was 18.3 µM.

Work on `C=C1CC[C@H]2C(C)(C)CCC[C@]2(C)[C@H]1C/C=C1\C(=O)Nc2c(Cl)cc(F)cc21` yielded an Activity [4] of 2.6, a selectivity ratio [1] of over 1350 and an EC50 [2] of 0.07 µM. It also gave a CC50 [3] of over 100 µM.

`C=C1CC[C@H]2C(C)(C)CCC[C@]2(C)[C@H]1C/C=C1/C(=O)Nc2cc(C(F)(F)F)ccc21` gave a selectivity ratio [1] of 10, an EC50 [2] of 7.41 µM and a CC50 [3] of 77.2 µM.

`C=C1CC[C@@H]2[C@](C)(CO)[C@H](O)CC[C@@]2(C)[C@@H]1C/C=C1\C(=O)Nc2ccccc21` showed a selectivity ratio [1] of over 17, an EC50 [2] of 5.85 µM and a CC50 [3] of over 100 µM.

`CC1=CC[C@H]2C(C)(C)CCC[C@]2(C)[C@H]1C/C=C1\C(=O)Nc2c(Cl)cccc21` showed a selectivity ratio [1] of 21, an EC50 [2] of 9.35 µM and a CC50 [3] of 194 µM.

Work on `C=C1CC[C@H]2C(C)(C)CCC[C@]2(C)[C@H]1C/C=C1/C(=O)Nc2ccccc21` yielded a selectivity ratio [1] of 15, an EC50 [2] of 2.8 µM and a CC50 [3] of 41.6 µM.

In the case of `C=C1CC[C@H]2C(C)(C)CCC[C@]2(C)[C@H]1C/C=C1\C(=O)Nc2ccccc21`, the selectivity ratio [1] is reported as over 14, the EC50 [2] is reported as 7.23 µM and the CC50 [3] is reported as over 100 µM.

Compound `C=C1CC[C@H]2C(C)(C)CCC[C@]2(C)[C@H]1C/C=C1\C(=O)Nc2cccc(Cl)c21` has a selectivity ratio [1] of 6.8, an EC50 [2] of 5.4 µM and a CC50 [3] of 37.2 µM.

For `C=C1CC[C@H]2C(C)(C)CCC[C@]2(C)[C@H]1C/C=C1\C(=O)NC(=O)c2ccccc21`, the Activity [4] was 3.8, the selectivity ratio [1] was over 347 and the EC50 [2] was 0.29 µM. For the same compound, the CC50 [3] was over 100 µM.

`C=C1[C@H](O)C[C@H]2C(C)(C)CCC[C@]2(C)[C@H]1C/C=C1\C(=O)Nc2c(Cl)cccc21` gave an Activity [5] of 2.1, a selectivity ratio [1] of 6700 and an EC50 [2] of 0.002 µM. The CC50 [3] was 13.4 µM.

Compound `C=C1CC[C@@H]2[C@](C)(CO)[C@H](O)CC[C@@]2(C)[C@@H]1C/C=C1\C(=O)N(C)c2ccccc21` has a CC50 [3] of over 100 µM.

`C=C1CC[C@H]2C(C)(C)CCC[C@]2(C)[C@H]1C/C=C1\C(=O)Nc2c(Br)cccc21` gave an Activity [4] of 2.3, a selectivity ratio [1] of over 90 and an EC50 [2] of 1.12 µM. It also gave a CC50 [3] of over 100 µM.

`C=C1CC[C@H]2C(C)(C)CCC[C@]2(C)[C@H]1C/C=C1/C(=O)Nc2cc(Cl)ccc21` showed a CC50 [3] of 5.7 µM.

With `C=C1CC[C@@H]2[C@](C)(CO)[C@H](O)CC[C@@]2(C)[C@@H]1C/C=C1/C(=O)N(C)c2ccccc21` the CC50 [3] was over 100 µM.

With `C=C1[C@H](O)C[C@H]2C(C)(C)CCC[C@]2(C)[C@H]1C/C=C1/C(=O)Nc2ccccc21` the selectivity ratio [1] was 12, the EC50 [2] was 1.29 µM and the CC50 [3] was 15 µM.

Compound `CC1=CC[C@H]2C(C)(C)CCC[C@]2(C)[C@H]1C/C=C1/C(=O)Nc2c(Cl)cccc21` has a selectivity ratio [1] of 1.5, an EC50 [2] of 6.56 µM and a CC50 [3] of over 100 µM.

`C=C1CC[C@@H]2[C@](C)(CO)[C@H](O)CC[C@@]2(C)[C@@H]1C/C=C1\C(=O)N(C(C)=O)c2ccccc21` showed a CC50 [3] of over 100 µM.

For `C=C1CC[C@H]2C(C)(C)CCC[C@]2(C)[C@H]1C/C=C1/C(=O)Nc2ccc(Cl)cc21`, the selectivity ratio [1] was 27, the EC50 [2] was 1.3 µM and the CC50 [3] was 36.1 µM.

With `C=C1CC[C@H]2C(C)(C)CCC[C@]2(C)[C@H]1C/C=C1\C(=O)Nc2ccc(F)cc21` the selectivity ratio [1] was 2.4, the EC50 [2] was 6.62 µM and the CC50 [3] was 15.7 µM.
